Measured values published in patent publication US12660819B2, “Herbicidal derivatives” (SYNGENTA CROP PROTECTION AG, priority 2020, dated 2026).

Key:
Type in all cases: in vivo
[1] = system: Ipomoea hederacea (IPOHE); assay: Pre-emergence Test (glasshouse, percentage damage to the plant); settings: 1000 g/ha unless otherwise stated; for percentage damage to the plant, IPOHE (five-point scale): Ipomoea hederacea
Setaria faberi (SETFA) [2] = assay: as above; settings: 1000 g/ha unless otherwise stated; for percentage damage to the plant, SETFA (five-point scale): Setaria faberi
[3] = system: Amaranthus palmeri (AMAPA); assay: Post-emergence Test (glasshouse, percentage damage to the plant); settings: 1000 g/ha unless otherwise stated, evaluated after 13 days; for AMAPA, percentage damage caused to the plant (five-point scale): post-emergence
In short: (§1)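 Seeds sown in standard soil in a glasshouse (24/16 °C day/night, 14 h light, 65% humidity), then sprayed with an aqueous solution of the compound formulated in acetone/water 50:50 with 0.5% Tween 20 at 1000 g/ha unless otherwise stated. Percentage damage was scored after 13 days on a five-point scale (5=81-100%; 1=0-20%).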

Setaria faberi (SETFA) [4] = assay: as above; settings: 1000 g/ha unless otherwise stated, evaluated after 13 days; for SETFA, percentage damage caused to the plant (five-point scale): post-emergence
In short: (§2)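 Scored 13 days after spraying as percentage plant damage in five bands (5=81–100%, 4=61–80%, 3=41–60%, 2=21–40%, 1=0–20%). Spray at 1000 g/ha unless stated, in acetone/water 50:50 plus 0.5% Tween 20, onto sown glasshouse pots (24/16 °C, 14 h light, 65% humidity).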

[5] = system: Amaranthus retoflexus (AMARE); assay: as above; settings: 1000 g/ha unless otherwise stated, evaluated after 13 days; for AMARE, percentage damage caused to the plant (five-point scale): post-emergence
In short: as §1

Zea mays (ZEAMX) [6] = assay: as above; settings: 1000 g/ha unless otherwise stated, evaluated after 13 days; for ZEAMX, percentage damage caused to the plant (five-point scale): post-emergence
In short: as §2

[7] = system: Ipomoea hederacea (IPOHE); assay: as above; settings: 1000 g/ha unless otherwise stated, evaluated after 13 days; for IPOHE, percentage damage caused to the plant (five-point scale): post-emergence
In short: as §2

[8] = system: Echinochloa crus-galli (ECHCG); assay: Pre-emergence Test (glasshouse, percentage damage to the plant); settings: 1000 g/ha unless otherwise stated; for percentage damage to the plant, ECHCG (five-point scale): Echinochloa crus-galli
[9] = system: Amaranthus palmeri (AMAPA); assay: as above; settings: 1000 g/ha unless otherwise stated; for percentage damage to the plant, AMAPA (five-point scale): Amaranthus palmeri
[10] = system: Amaranthus retoflexus (AMARE); assay: as above; settings: 1000 g/ha unless otherwise stated; for percentage damage to the plant, AMARE (five-point scale): Amaranthus retoflexus
Zea mays (ZEAMX) [11] = assay: as above; settings: 1000 g/ha unless otherwise stated; for percentage damage to the plant, ZEAMX (five-point scale): Zea mays

SMILES	percentage damage to the plant, IPOHE (five-point scale) [1]	percentage damage to the plant, SETFA (five-point scale) (Setaria faberi (SETFA) [2])	AMAPA, percentage damage caused to the plant (five-point scale) [3]	SETFA, percentage damage caused to the plant (five-point scale) (Setaria faberi (SETFA) [4])	AMARE, percentage damage caused to the plant (five-point scale) [5]	ZEAMX, percentage damage caused to the plant (five-point scale) (Zea mays (ZEAMX) [6])	IPOHE, percentage damage caused to the plant (five-point scale) [7]	percentage damage to the plant, ECHCG (five-point scale) [8]	percentage damage to the plant, AMAPA (five-point scale) [9]	percentage damage to the plant, AMARE (five-point scale) [10]	percentage damage to the plant, ZEAMX (five-point scale) (Zea mays (ZEAMX) [11])	further results
CCn1c(C)c(-c2ccc(Cl)cc2SC)c(=O)c(C(=O)O)c1-c1ccc(Cl)c(Cl)c1 [Compound 158, 5-(4-chloro-2-methylsulfanyl-phenyl)-2-(3,4-dichlorophenyl)-1-ethyl-6-methyl-4-oxo-pyridine-3-carboxylic acid]												percentage damage to the plant, IPOHE ([1]; five-point scale): 0; percentage damage to the plant, SETFA (Setaria faberi (SETFA) [2]; five-point scale): 0; Post-emergence Test AMAPA, percentage damage to the plant (five-point scale) ([3]; post-emergence spray): 5 (5=81-100%); Post-emergence Test SETFA, percentage damage to the plant (five-point scale) (Setaria faberi (SETFA) [4]; post-emergence spray): 1 (1=0-20%); Post-emergence Test AMARE, percentage damage to the plant (five-point scale) ([5]; post-emergence spray): 4 (4=61-80%); Post-emergence Test ZEAMX, percentage damage to the plant (five-point scale) (Zea mays (ZEAMX) [6]; post-emergence spray): 1 (1=0-20%); Post-emergence Test IPOHE, percentage damage to the plant (five-point scale) ([7]; post-emergence spray): 2 (2=21-40%); percentage damage to the plant, ECHCG ([8]; five-point scale): 0; percentage damage to the plant, AMAPA ([9]; five-point scale): 3 (3=41-60%); percentage damage to the plant, AMARE ([10]; five-point scale): 0; percentage damage to the plant, ZEAMX (Zea mays (ZEAMX) [11]; five-point scale): 0
CCn1c(C)c(-c2cc(F)ccc2C)c(=O)c(C(=O)O)c1-c1ccc(Cl)c(Cl)c1 [Compound 222, 2-(3,4-dichlorophenyl)-1-ethyl-5-(5-fluoro-2-methyl-phenyl)-6-methyl-4-oxo-pyridine-3-carboxylic acid]	1 (1=0-20%)	1 (1=0-20%)	5 (5=81-100%)	3 (3=41-60%)	3 (3=41-60%)	1 (1=0-20%)	3 (3=41-60%)	1 (1=0-20%)	1 (1=0-20%)	1 (1=0-20%)	1 (1=0-20%)	
CCn1c(C)c(-c2cccc3c2OC(F)(F)O3)c(=O)c(C(=O)O)c1-c1ccc(Cl)c(Cl)c1 [Compound 223, 2-(3,4-dichlorophenyl)-5-(2,2-difluoro-1,3-benzodioxol-4-yl)-1-ethyl-6-methyl-4-oxo-pyridine-3-carboxylic acid]	0	3 (3=41-60%)	5 (5=81-100%)	3 (3=41-60%)	5 (5=81-100%)	1 (1=0-20%)	1 (1=0-20%)	1 (1=0-20%)	3 (3=41-60%)	1 (1=0-20%)	1 (1=0-20%)	
CCn1c(C)c(-c2cc(OC(F)(F)F)ccc2Cl)c(=O)c(C(=O)O)c1-c1ccc(Cl)c(Cl)c1 [Compound 224, 5-[2-chloro-5-(trifluoromethoxy)phenyl]-2-(3,4-dichlorophenyl)-1-ethyl-6-methyl-4-oxo-pyridine-3-carboxylic acid]	2 (2=21-40%)	5 (5=81-100%)	5 (5=81-100%)	5 (5=81-100%)	5 (5=81-100%)	3 (3=41-60%)	2 (2=21-40%)	5 (5=81-100%)	4 (4=61-80%)	3 (3=41-60%)	2 (2=21-40%)	
CCn1c(C)c(-c2cc(C)ccc2C)c(=O)c(C(=O)O)c1-c1ccc(Cl)c(Cl)c1 [Compound 225, 2-(3,4-dichlorophenyl)-5-(2,5-dimethylphenyl)-1-ethyl-6-methyl-4-oxo-pyridine-3-carboxylic acid]	0	0	5 (5=81-100%)	1 (1=0-20%)	4 (4=61-80%)	1 (1=0-20%)	1 (1=0-20%)	1 (1=0-20%)	0	0	0	
CCn1c(C)c(-c2cccc(C)c2F)c(=O)c(C(=O)O)c1-c1ccc(Cl)c(Cl)c1 [Compound 228, 2-(3,4-dichlorophenyl)-1-ethyl-5-(2-fluoro-3-methyl-phenyl)-6-methyl-4-oxo-pyridine-3-carboxylic acid]	3 (3=41-60%)	5 (5=81-100%)	5 (5=81-100%)	3 (3=41-60%)	4 (4=61-80%)	2 (2=21-40%)	3 (3=41-60%)	5 (5=81-100%)	4 (4=61-80%)	2 (2=21-40%)	2 (2=21-40%)	
CCn1c(C)c(-c2cc(Cl)ccc2F)c(=O)c(C(=O)O)c1-c1ccc(Cl)c(Cl)c1 [Compound 229, 5-(5-chloro-2-fluoro-phenyl)-2-(3,4-dichlorophenyl)-1-ethyl-6-methyl-4-oxo-pyridine-3-carboxylic acid]	1 (1=0-20%)	1 (1=0-20%)	5 (5=81-100%)	1 (1=0-20%)	5 (5=81-100%)	1 (1=0-20%)	3 (3=41-60%)	0	4 (4=61-80%)	4 (4=61-80%)	0	
CCn1c(C)c(-c2cc(C)ccc2F)c(=O)c(C(=O)O)c1-c1ccc(Cl)c(Cl)c1 [Compound 231, 2-(3,4-dichlorophenyl)-1-ethyl-5-(2-fluoro-5-methyl-phenyl)-6-methyl-4-oxo-pyridine-3-carboxylic acid]	0	4 (4=61-80%)	5 (5=81-100%)	3 (3=41-60%)	5 (5=81-100%)	1 (1=0-20%)	3 (3=41-60%)	2 (2=21-40%)	4 (4=61-80%)	3 (3=41-60%)	0	
CCn1c(C)c(-c2ccc(F)c(OC)c2F)c(=O)c(C(=O)O)c1-c1ccc(Cl)c(Cl)c1 [Compound 234, 2-(3,4-dichlorophenyl)-5-(2,4-difluoro-3-methoxy-phenyl)-1-ethyl-6-methyl-4-oxo-pyridine-3-carboxylic acid]	4 (4=61-80%)	5 (5=81-100%)	5 (5=81-100%)	4 (4=61-80%)	4 (4=61-80%)	3 (3=41-60%)	4 (4=61-80%)	5 (5=81-100%)	3 (3=41-60%)	2 (2=21-40%)	2 (2=21-40%)	
CCn1c(C)c(-c2cc(F)ccc2OC)c(=O)c(C(=O)O)c1-c1ccc(Cl)c(Cl)c1 [Compound 235, 2-(3,4-dichlorophenyl)-1-ethyl-5-(5-fluoro-2-methoxy-phenyl)-6-methyl-4-oxo-pyridine-3-carboxylic acid]	0	0	4 (4=61-80%)	2 (2=21-40%)	3 (3=41-60%)	1 (1=0-20%)	3 (3=41-60%)	0	3 (3=41-60%)	0	0	
